# Data: patent US20140212437A1, “METHODS AND COMPOSITIONS FOR TREATING ATRIAL FIBRILLATION” (THE REGENTS OF THE UNIVERSITY OF MICHIGAN, priority 2013, published 2014)
# “Also recorded” adds a separate entry of the source.
# Tests used:
# [1] = test system: adult sheep atrial fibroblasts; experiment: Wound healing (in vitro migration) assay; assay type: cell-based; conditions: Gal-3 vs untreated cells, days 0-2
# Protocol: (§1) Wound healing experiments were performed to investigate if exogenous Gal-3 can increase myofibroblast migration in vitro (FIG. 3). Adult sheep atrial fibroblasts were cultured in 96-well plates until confluent. Before serum starvation, cells were stained with cell tracker dye and DAPI. A wound was created by scraping a semi-confluent monolayer of cells with a 1 ml pipette tip. Thereafter, cells underwent serum starvation in DMEM with […] for 6 hrs. Comparisons were made between untreated and Gal-3 treated (1 μg/ml or 10 μg ml) cells. The wound was imaged at 4 different locations at 3 different time points (days 0, 1 and 2). The size of the wound was quantified using the NIS element program by Nikon. […] Next, to investigate the effects of Gal-3 on myofibroblast proliferation, adult sheep atrial fibroblasts were treated with recombinant human Gal-3 (EMD chemicals, USA) for 24 hours in the presence of SFM. FM was included as a positive control. Cell proliferation was measured using cell proliferation reagent WST (Roche Diagnostics, USA). […] Such concentrations are in the same range used previously (Sharma et al., Circulation. 2004; 110:3121-3128) to investigate Gal-3 induced fibroblast proliferation in the cardiomyopathic heart. […] In addition, the results strongly support the therapeutic value of Gal-3 inhibitors.
# [2] = test system: adult sheep atrial fibroblasts; experiment: Cell proliferation, WST reagent; assay type: cell-based; conditions: 1-30 μg/ml, 24 hours, SFM
# Protocol: as §1
# [3] = test system: FOXO1; experiment: Western blot of FOXO1 phosphorylation; assay type: cell-based, rat
# Protocol: (§2) Cell Treatment: Isolated adult rat cardiac myocytes were treated with FCM or TGF-β1 (R and D systems, Minneapolis, Minn.) for 3 days in serum free medium. For PI3K pathway inhibition cells were pretreated (30 min) with 10 μM […] (Cayman Chemicals, Ann Arbor) before the treatment with TGF-β1.
# Western blotting: Control and treated cardiac myocytes were washed in cold PBS, lysed directly in the modified loading buffer (25 mmol/l Tris.HCl; 150 mmol/l NaCl; 1 mmol/l EDTA; 4 mmol/l NaF; 2 mmol/l Sodium ortho-vanadate; 1% Triton X-100, protease inhibitor, 5% glycerol, 1% SDS, 0.05% bromophenol blue. 5% β mercaptoethanol) and sonicated. The lysate (20 μl) were then subjected SDS-PAGE as described earlier. The blots were incubated with rabbit pFOXO1 antibody, 1:500 (Cell Signaling) or rabbit GAPDH antibody, 1:5000 (Sigma-Aldrich, St. Louis, Mo.).
# [4] = test system: SCN5A; experiment: mRNA analysis by qPCR, SCN5A; assay type: cell-based, rat
# Protocol: as §2
# (§3) mRNA analysis by quantitative PCR (qPCR): Cardiac myocytes were washed with PBS and lysed with lysis buffer. RNA was isolated from the myocardial tissue using RNAeasy kit from Qiagen (Qiagen, Valencia, Calif.) according to the manufacturer's instructions. Isolated RNA from these samples was treated with DNase for 15 min at room temperature (Qiagen, Valencia. CA). 100 ng of DNA-free total poly-A tail RNA (mRNA) was first subjected to synthesis of cDNA using Oligo dT primers applying SuperScript III First-Strand Synthesis System from Invitrogen (Invitrogen, Carlsbad, Calif.) according to the manufacturer's instructions. cDNA from 20 ng of total RNA was then subjected to real-time RT-PCR using predesigned taqman probe primers specific for rat Scn5a (Rn00565502), Kcnip2 (Kchip2; Rn01411451) and kcnd2 (Rn01456260) (Applied Biosystems, California). No-template controls and no-RT controls were run during each experiment to detect any RNA and/or DNA contamination. Results are expressed as fold expression of gene of interest normalized to GAPDH expression in the sample.
# [5] = test system: KCND2; experiment: mRNA analysis by qPCR, KCND2; assay type: cell-based, rat; conditions: 1 ng/ml, 72 hr
# Protocol: as §3
# [6] = test system: adult rat ventricular myocytes; experiment: Whole-cell patch clamp, sodium current (INa); assay type: cell-based
# Protocol: as §2
# Patch-clamp experiments: Whole-cell ionic currents were recorded from adult rat ventricular myocytes. All recordings were conducted at room temperature. Sodium current recordings were conducted in a low-sodium extracellular solution containing (in mM): NaCl, 10; MgCl2, 1; CaCl2, 1.8; CdCl2, 0.1; HEPES, 20; CsCl, 127.5; glucose, 11. The pipette solution contained (in mM): NaCl, 5; CsF, 135; EGTA, 10; MgATP, 5; HEPES, 5. To characterize the voltage dependence of the peak INa, single cells were held at −120 mV, and 200 msec voltage steps were applied from −90 to +30 mV in 5 mV increments. The interval between voltage steps was 3 sec. Voltage-dependence of inactivation was assessed by holding cells at various potentials from −160 to −40 mV followed by a 30 msec test pulse to −40 mV to elicit INa. Recovery from inactivation was studied by holding cells at −120 mV and applying two 20-msec test pulses (S1, S2) to −40 mV separated by increments of 2 msec to a maximum S1-S2 interval of 80 msec. The S1-S1 interval was kept constant at 3 sec.
# (§4) In all experiments, cells were exposed to one of the following for 72 hrs prior to the experiment: control medium, FCM or TGF-β1.
# [7] = test system: KCNIP2; experiment: mRNA analysis by qPCR, KCNIP2; assay type: cell-based, rat; conditions: 1 ng/ml, 72 hr
# Protocol: as §3
# [8] = test system: adult rat ventricular myocytes; experiment: Action potential recording, current clamp; assay type: cell-based
# Protocol: as §2
# Action potentials were recorded from individual myocytes using the current clamp mode of the MultiClamp 700B amplifier after gigaseal formation and patch break. Stimulus pulses (1-2 ms duration) were generated using a World Precision Instruments DS8000 stimulator (Sarasota, Fla.). The bath solution contained (in mM): NaCl: 148, KCl: 5.4, MgCl2: 1, CaCl2 1.8, NaH2PO4: 0.4, HEPES: 15, Glucose: 5.5, pH 7.4 with NaOH. The pipette solution contained (in mM), KCl: 20, K-aspartate: 90, KH2PO4: 10, EDTA: 5.0. K2ATP: 1.9, HEPES: 5.0 and Mg2+ 7.9; pH 7.2 (KOH)
# [9] = test system: adult rat ventricular myocytes; experiment: Whole-cell patch clamp, transient outward potassium current (Ito); assay type: cell-based; conditions: 72-hr
# Protocol: as §2
# The extracellular solution for transient outward potassium current (Ito) contained (in mM): 136 NaCl, 4 KCl, 1.8 CaCl2, 2 MgCl2, 10 HEPES, 0.03 tetrodotoxin. 0.01 nifedipine, and 14 glucose, pH 7.35. The pipette solution contained (in mM): 135 KCl, 1 MgCl2, 10 EGTA, 10 HEPES, 5 glucose, pH 7.2. Voltage-gated outward K+ currents were evoked during 5-s depolarizing voltage steps to potentials between −40 and +60 mV from a holding potential of −70 mV; voltage steps were presented in 10 mV increments at 15 s intervals
# as §4
molecule,measurement,setting,value
"Gal-3: recombinant human Gal-3 (EMD chemicals, USA) added exogenously to sheep atrial fibroblasts",rate of migration / wound healing,[1],significantly increased the rate of migration and promoted wound healing; also recorded: increases the rate of wound healing
same,number of adult sheep atrial myofibroblasts (proliferation),[2],increased the number of adult sheep atrial myofibroblasts in a concentration-dependent manner; also recorded: increases proliferation
"O=c1cc(N2CCOCC2)oc2c(-c3ccccc3)cccc12 [LY 29004, reference compound]",phosphorylation of FOXO1 in TGF-β1 treated cells,[3]; pretreated 30 min with 10 μM,inhibited
same,TGF-β1-induced increase in SCN5A transcription,[4]; pretreated 30 min with 10 μM,failed to show increased SCN5A transcription
TGF-β1,increase in phosphorylated FOXO1 compared to control,[3]; 1 ng/ml,67%
same,exposure time of peak FOXO1 phosphorylation,"[3]; 1 ng/ml, phosphorylation seen at 5 min",15 min
same,decrease of KCND2 expression with respect to control,[5],50.6%
same,maximum INa increase,"[6]; 1 ng/ml, 72 hours, also seen at 10 ng/ml",about 40%
same,more inward current compared to control medium,"[6]; 1 ng/ml, at −40V",about 40%
same,peak INa density compared to control,"[6]; 1 ng/ml, step voltages between −60 mV and −30 mV, p<0.05-0.01",significantly increased the peak INa density
same,EC50 for peak inward INa density,"[6]; 72 hours, 0.001-1.0 ng/ml",0.007 ng/mL
same,voltage dependence of activation (m∞) and inactivation (h∞),[6]; 72 hr treatment or viral overexpression,neither the m∞ nor the h∞ curve was modified
same,reduction of mRNA levels of KCNIP2,[7],77%
same,"SCN5A transcript levels, increase","[4]; 1 ng/ml, 72 hr",1.73±0.26 fold
same,action potential duration (APD),"[8]; 10 ng/ml, 72 hours",basic cycle length (BCL) dependent action potential duration (APD) prolongation
same,APD30 relative to control,"[8]; 10 ng/ml, BCL of 1000 ms",> 3.5 times
same,APD30,"[8]; 10 ng/ml, BCL of 1000 ms, control 8.1±3.6",29.1 ± 5.6 ms
same,action potential duration / early afterdepolarizations,[8]; 50 ng/ml,APD was so prolonged that some cells early afterdepolarizations (EADs)
same,peak Ito,[9]; 1 ng/ml,significantly reduced the peak Ito but to a much modest level
same,"Ito current density, % of control levels","[9]; 10 ng/ml, at 60 mV",57%
same,reduction of Ito current density,"[9]; 10 ng/ml, at +20 mV",42%
same,Ito current density at 60 mV,"[9]; 10 ng/ml, control 22.2±1.2",12.6±0.98
same,Ito compared to control,"[9]; 10 ng/ml, voltages between +20 mV and +60 mV",significantly lower than control
